± gives the expanded uncertainty stated by the source.
Legend:
[1] = 101 kPa, Liquid; for viscosity: Falling or rolling sphere viscometry; for mass density: Vibrating tube method
[2] = xn = mol fraction of the nth substance listed; details: 101 kPa, Liquid; for viscosity: Falling or rolling sphere viscometry; for mass density: Vibrating tube method

CCn1cc[n+](C)c1.N#C[C-](C#N)C#N [1-ethyl-3-methyl-1H-imidazolium tricyanomethanide]
viscosity ([1]; 293.15 K): 17.72 ± 0.42 mPa·s
mass density ([1]; 293.15 K): 1085.2 ± 1.4 kg/m3
viscosity ([1]; 303.15 K): 12.88 ± 0.3 mPa·s
mass density ([1]; 303.15 K): 1078.1 ± 1.4 kg/m3
viscosity ([1]; 313.15 K): 9.8 ± 0.23 mPa·s
mass density ([1]; 313.15 K): 1071.1 ± 1.3 kg/m3
viscosity ([1]; 323.15 K): 7.73 ± 0.18 mPa·s
mass density ([1]; 323.15 K): 1064.1 ± 1.3 kg/m3
viscosity ([1]; 333.15 K): 5.93 ± 0.14 mPa·s
mass density ([1]; 333.15 K): 1057.2 ± 1.3 kg/m3
viscosity ([1]; 343.15 K): 4.91 ± 0.12 mPa·s
mass density ([1]; 343.15 K): 1050.4 ± 1.3 kg/m3
viscosity ([1]; 353.15 K): 4.15 ± 0.1 mPa·s
mass density ([1]; 353.15 K): 1043.6 ± 1.3 kg/m3

CCn1cc[n+](C)c1.N#C[C-](C#N)C#N [1-ethyl-3-methyl-1H-imidazolium tricyanomethanide] + CCn1cc[n+](C)c1.N#CN=C=[N-]
viscosity ([2]; 293.15 K, x1 = 0.2): 17.55 ± 0.41 mPa·s
viscosity ([2]; 293.15 K, x1 = 0.4): 17.59 ± 0.41 mPa·s
viscosity ([2]; 293.15 K, x1 = 0.6): 17.6 ± 0.41 mPa·s
viscosity ([2]; 293.15 K, x1 = 0.8): 17.64 ± 0.41 mPa·s
viscosity ([2]; 293.15 K, x1 = 1): 17.72 ± 0.42 mPa·s
mass density ([2]; 293.15 K, x1 = 0.2): 1099.9 ± 1.4 kg/m3
mass density ([2]; 293.15 K, x1 = 0.4): 1095.8 ± 1.4 kg/m3
mass density ([2]; 293.15 K, x1 = 0.6): 1091.9 ± 1.4 kg/m3
mass density ([2]; 293.15 K, x1 = 0.8): 1088.4 ± 1.4 kg/m3
mass density ([2]; 293.15 K, x1 = 1): 1085.2 ± 1.4 kg/m3
viscosity ([2]; 303.15 K, x1 = 0.2): 13.05 ± 0.31 mPa·s
viscosity ([2]; 303.15 K, x1 = 0.4): 13.02 ± 0.31 mPa·s
viscosity ([2]; 303.15 K, x1 = 0.6): 13.01 ± 0.31 mPa·s
viscosity ([2]; 303.15 K, x1 = 0.8): 12.89 ± 0.3 mPa·s
viscosity ([2]; 303.15 K, x1 = 1): 12.88 ± 0.3 mPa·s
mass density ([2]; 303.15 K, x1 = 0.2): 1093.2 ± 1.4 kg/m3
mass density ([2]; 303.15 K, x1 = 0.4): 1088.9 ± 1.4 kg/m3
mass density ([2]; 303.15 K, x1 = 0.6): 1085 ± 1.4 kg/m3
mass density ([2]; 303.15 K, x1 = 0.8): 1081.4 ± 1.4 kg/m3
mass density ([2]; 303.15 K, x1 = 1): 1078.1 ± 1.4 kg/m3
viscosity ([2]; 313.15 K, x1 = 0.2): 10.12 ± 0.24 mPa·s
viscosity ([2]; 313.15 K, x1 = 0.4): 10.05 ± 0.24 mPa·s
viscosity ([2]; 313.15 K, x1 = 0.6): 10.02 ± 0.24 mPa·s
viscosity ([2]; 313.15 K, x1 = 0.8): 9.89 ± 0.23 mPa·s
viscosity ([2]; 313.15 K, x1 = 1): 9.8 ± 0.23 mPa·s
mass density ([2]; 313.15 K, x1 = 0.2): 1086.5 ± 1.4 kg/m3
mass density ([2]; 313.15 K, x1 = 0.4): 1082.2 ± 1.4 kg/m3
mass density ([2]; 313.15 K, x1 = 0.6): 1078.1 ± 1.4 kg/m3
mass density ([2]; 313.15 K, x1 = 0.8): 1074.5 ± 1.3 kg/m3
mass density ([2]; 313.15 K, x1 = 1): 1071.1 ± 1.3 kg/m3
viscosity ([2]; 323.15 K, x1 = 0.2): 7.92 ± 0.19 mPa·s
viscosity ([2]; 323.15 K, x1 = 0.4): 7.84 ± 0.18 mPa·s
viscosity ([2]; 323.15 K, x1 = 0.6): 7.8 ± 0.18 mPa·s
viscosity ([2]; 323.15 K, x1 = 0.8): 7.77 ± 0.18 mPa·s
viscosity ([2]; 323.15 K, x1 = 1): 7.73 ± 0.18 mPa·s
mass density ([2]; 323.15 K, x1 = 0.2): 1079.9 ± 1.4 kg/m3
mass density ([2]; 323.15 K, x1 = 0.4): 1075.5 ± 1.4 kg/m3
mass density ([2]; 323.15 K, x1 = 0.6): 1071.3 ± 1.3 kg/m3
mass density ([2]; 323.15 K, x1 = 0.8): 1067.6 ± 1.3 kg/m3
mass density ([2]; 323.15 K, x1 = 1): 1064.1 ± 1.3 kg/m3
viscosity ([2]; 333.15 K, x1 = 0.2): 6.26 ± 0.15 mPa·s
viscosity ([2]; 333.15 K, x1 = 0.4): 6.22 ± 0.15 mPa·s
viscosity ([2]; 333.15 K, x1 = 0.6): 6.19 ± 0.15 mPa·s
viscosity ([2]; 333.15 K, x1 = 0.8): 6.15 ± 0.14 mPa·s
viscosity ([2]; 333.15 K, x1 = 1): 5.93 ± 0.14 mPa·s
mass density ([2]; 333.15 K, x1 = 0.2): 1073.4 ± 1.3 kg/m3
mass density ([2]; 333.15 K, x1 = 0.4): 1068.8 ± 1.3 kg/m3
mass density ([2]; 333.15 K, x1 = 0.6): 1064.6 ± 1.3 kg/m3
mass density ([2]; 333.15 K, x1 = 0.8): 1060.8 ± 1.3 kg/m3
mass density ([2]; 333.15 K, x1 = 1): 1057.2 ± 1.3 kg/m3
viscosity ([2]; 343.15 K, x1 = 0.2): 5.23 ± 0.12 mPa·s
viscosity ([2]; 343.15 K, x1 = 0.4): 5.21 ± 0.12 mPa·s
viscosity ([2]; 343.15 K, x1 = 0.6): 5.2 ± 0.12 mPa·s
viscosity ([2]; 343.15 K, x1 = 0.8): 5.1 ± 0.12 mPa·s
viscosity ([2]; 343.15 K, x1 = 1): 4.91 ± 0.12 mPa·s
mass density ([2]; 343.15 K, x1 = 0.2): 1066.9 ± 1.3 kg/m3
mass density ([2]; 343.15 K, x1 = 0.4): 1062.3 ± 1.3 kg/m3
mass density ([2]; 343.15 K, x1 = 0.6): 1057.9 ± 1.3 kg/m3
mass density ([2]; 343.15 K, x1 = 0.8): 1054.1 ± 1.3 kg/m3
mass density ([2]; 343.15 K, x1 = 1): 1050.4 ± 1.3 kg/m3
viscosity ([2]; 353.15 K, x1 = 0.2): 4.44 ± 0.1 mPa·s
viscosity ([2]; 353.15 K, x1 = 0.4): 4.42 ± 0.1 mPa·s
viscosity ([2]; 353.15 K, x1 = 0.6): 4.38 ± 0.1 mPa·s
viscosity ([2]; 353.15 K, x1 = 0.8): 4.32 ± 0.1 mPa·s
viscosity ([2]; 353.15 K, x1 = 1): 4.15 ± 0.1 mPa·s
mass density ([2]; 353.15 K, x1 = 0.2): 1060.5 ± 1.3 kg/m3
mass density ([2]; 353.15 K, x1 = 0.4): 1055.7 ± 1.3 kg/m3
mass density ([2]; 353.15 K, x1 = 0.6): 1051.3 ± 1.3 kg/m3
mass density ([2]; 353.15 K, x1 = 0.8): 1047.4 ± 1.3 kg/m3
mass density ([2]; 353.15 K, x1 = 1): 1043.6 ± 1.3 kg/m3

CCn1cc[n+](C)c1.N#CN=C=[N-] [1-ethyl-3-methylimidazolium dicyanamide]
viscosity ([1]; 293.15 K): 17.54 ± 0.41 mPa·s
mass density ([1]; 293.15 K): 1104.6 ± 1.4 kg/m3
viscosity ([1]; 303.15 K): 13.11 ± 0.31 mPa·s
mass density ([1]; 303.15 K): 1098 ± 1.4 kg/m3
viscosity ([1]; 313.15 K): 10.17 ± 0.24 mPa·s
mass density ([1]; 313.15 K): 1091.4 ± 1.4 kg/m3
viscosity ([1]; 323.15 K): 8.13 ± 0.19 mPa·s
mass density ([1]; 323.15 K): 1084.9 ± 1.4 kg/m3
viscosity ([1]; 333.15 K): 6.66 ± 0.16 mPa·s
mass density ([1]; 333.15 K): 1078.5 ± 1.4 kg/m3
viscosity ([1]; 343.15 K): 5.58 ± 0.13 mPa·s
mass density ([1]; 343.15 K): 1072.1 ± 1.3 kg/m3
viscosity ([1]; 353.15 K): 4.75 ± 0.11 mPa·s
mass density ([1]; 353.15 K): 1065.8 ± 1.3 kg/m3

CCn1cc[n+](C)c1.N#CN=C=[N-] [1-ethyl-3-methylimidazolium dicyanamide] + CCn1cc[n+](C)c1.N#C[C-](C#N)C#N
viscosity ([2]; 293.15 K, x2 = 0): 17.54 ± 0.41 mPa·s
mass density ([2]; 293.15 K, x2 = 0): 1104.6 ± 1.4 kg/m3
viscosity ([2]; 303.15 K, x2 = 0): 13.11 ± 0.31 mPa·s
mass density ([2]; 303.15 K, x2 = 0): 1098 ± 1.4 kg/m3
viscosity ([2]; 313.15 K, x2 = 0): 10.17 ± 0.24 mPa·s
mass density ([2]; 313.15 K, x2 = 0): 1091.4 ± 1.4 kg/m3
viscosity ([2]; 323.15 K, x2 = 0): 8.13 ± 0.19 mPa·s
mass density ([2]; 323.15 K, x2 = 0): 1084.9 ± 1.4 kg/m3
viscosity ([2]; 333.15 K, x2 = 0): 6.66 ± 0.16 mPa·s
mass density ([2]; 333.15 K, x2 = 0): 1078.5 ± 1.4 kg/m3
viscosity ([2]; 343.15 K, x2 = 0): 5.58 ± 0.13 mPa·s
mass density ([2]; 343.15 K, x2 = 0): 1072.1 ± 1.3 kg/m3
viscosity ([2]; 353.15 K, x2 = 0): 4.75 ± 0.11 mPa·s
mass density ([2]; 353.15 K, x2 = 0): 1065.8 ± 1.3 kg/m3
